IC50 and CEBPα gene expression data for one compound are collected here from US20120225889A1, “USE OF MACROCYCLIC LACTONE DERIVATIVES FOR THE TREATMENT OF INFLAMMATORY DISORDERS” (PIRAMAL LIFE SCIENCES LIMITED, priority 2010, published 2012).

SMILES strings stand for the structures. Read-outs that look alike come from different tables or passages of the source.

The subject of one test is IL-6. Nature of the test: Screening in LPS stimulated THP-1 cells: IL-6. It counts as cell-based. The note with it: Homo sapiens, 24 h, ELISA. As to the method: IL-6 (BD Biosciences, USA) production by LPS (Escherchia coli 0127:B8, Sigma, USA) in THP-1 cells (ATCC number: TIB202) was designed as in reference, Journal of Immunology, 151, 5631-5638, (1993), the disclosure of which is incorporated by reference for the teaching of the assay.
THP-1 cells were cultured in RPMI 1640 culture medium (Gibco BRL, UK) containing 100 U/mL penicillin and […] streptomycin, (100× solution, Sigma, USA) containing 10% FBS (JRH Biosciences, USA). 25,000 cells were seeded per well in 96-well plate (Nunc, USA). The cells were differentiated with PMA (Sigma, USA, prepared as 100 μg/mL stock in RPMI and was diluted to 5 ng/mL). The test compound (prepared as 20 mM stock in DMSO and diluted with DMSO to achieve the following final concentrations in the assay: 100, 10, 1, 0.1, 0.01, 0.001 and 0.0001 μM) or vehicle (0.5% DMSO) were added to the cells and the cells were incubated for 30 min at 37° C. LPS (Sigma, USA, prepared as 1 mg/mL stock in PBS) was added to achieve a final concentration of 1 μg/mL. Plates were incubated at 37° C. for 24 h at 5% CO2. Supernatants were harvested, and assayed for TNF-α and IL-6 by ELISA as described by the manufacturer (BD Biosciences, USA). Percent inhibition of cytokine release compared to the control was calculated. The IC50 values were calculated by a nonlinear regression method.

The subject of the next test is hPBMCs. Nature of the test: Lymphocyte proliferation assay (T-cell proliferation of normal hPBMCs). It counts as cell-based. The note with it: Homo sapiens. The source says:
The assay method was designed as in references, The Journal of Immunology, 153, 1-9, (1994), and Clinical and Diagnostic Laboratory Immunology, 7, 687-692, (2000), the disclosure of which is incorporated by reference for the teaching of the assay.
hPBMCs were obtained from healthy donors by centrifugation of heparinized venous blood over Ficoll/Hypaque solution (Histopaque-1077, Sigma, USA). Isolated hPBMCs were suspended in RPMI 1640 culture medium supplemented with 10% FBS and seeded at a density of 50,000 cells/well in a 96-well plate (Nunc, USA). The cells were incubated at 37° C., 5% CO2 for a period of 24 h. These cells were used for the lymphocyte proliferation as well as cytokine release assay.
The plated cells were treated with different concentrations of the test compound (prepared as 20 mM stock in DMSO and diluted with DMSO to achieve the following final concentrations in the assay: 100, 10, 1, 0.1, 0.01, 0.001 and 0.0001 μM) and were incubated for 30 min. The cells were then stimulated with 5 ng/mL PMA (Sigma, USA, prepared as 100 μg/mL stock in RPMI and was diluted to 5 ng/mL) and 5 μg/mL PHA (Sigma, USA, prepared as a 1 mg/mL stock in RPMI). The plates were incubated at 37° C., 5% CO2 for 48 h. The cells were treated overnight with 0.1 μCi of tritiated thymidine per well (obtained from BARC, India; prepared as stock of 1 mCi/mL) and was diluted in KRPH buffer to 10 μCi/mL and […] and was added per well to obtain a final concentration 0.1 μCi/well) and at the end of 48 h, the anti-proliferative effect of the compound was measured using the following formula: […]
Controls consisted of hPBMCs with PHA and PMA (Stimulated), hPBMCs with RPMI (Un-stimulated), hPBMCs with FK506 (positive control, Sigma, USA, prepared as 20 mM stock in DMSO and diluted with DMSO to achieve the following final concentrations in the assay: 100, 10, 1, 0.1, 0.01, 0.001 and 0.0001 μM).

For another test, the system named is CEBPα. Nature of the test: Gene expression profile using RTQ-PCR: CEBPα. To be noted: 3 μM. It counts as cell-based, human. As to the method: The effect of the compound of example 7 was measured in stimulated untreated cells from the monocytic cell line (THP-1), human monocytes and synovial cells from rheumatoid arthritis patient. The effect of the compound in the THP-1 cell line was measured in terms of gene expression and was expressed as fold changes as compared to the cell stimulated control with no drug treatment.
THP-1 cells, human monocytes and synovial cells were treated with compound of example 7 or vehicle (0.5% DMSO). Total RNA isolation using a commercial RNA extraction kit (Qiagen Corporation, Germany) The first-strand cDNA was synthesized from total RNA using first strand cDNA synthesis kit from Invitrogen Corporation (California, USA). This was followed by real time quantitative polymerase chain reaction (RTQ PCR) using gene specific primers and standard thermal program of initial denaturation at 95° C. for 5 min and cycles of 95° C. for 10 seconds, followed by 60° C. for 30 seconds (Realplex PCR machine from Eppendorf, Germany). Quantitative measurement of products made during PCR cycles was normalized against a housekeeping gene (Actin) and was used to measure the gene expression as fold changes as compared to respective control.

`C/C=C/C(O)C(C)/C=C/C(=N\O)C(C)C(O)C(C)C1OC(=O)/C(OC)=C/C(C)=C/C(C)C(O)C(CC)C(O)C(C)C/C(C)=C/C=C/C1OC` (stereo not drawn) [Compound of example 7, (3Z,5E,13E,15E)-18-((5Z,6E,10E)-3,9-Dihydroxy-5-(hydroxymino)-4,8-dimethyldodeca-6,10-dien-2-yl)-9-ethyl-8,10-dihydroxy-3,17-dimethoxy-5,7,11,13-tetramethyl oxacyclooctadeca-3,5,13,15-tetraen-2-one]: the IC50 with IL-6 is 40 nM; with hPBMCs (read-out: Stimulated hPBMC's IC50 (inhibition of cell proliferation)) it was 3 nM; with hPBMCs (read-out: Unstimulated hPBMC's IC50 (inhibition of cell proliferation)), 5000 nM. In addition, the CEBPα gene expression is listed as −3.9 + 0.4 log fold change in the test on CEBPα (Human monocytes, 3 h, ± SE, N = 3); −2.4 log fold change in the test on CEBPα (Synovial cells, 12 h, N = 1); −2.1 + 2.2 log fold change with CEBPα (THP-1 cells, 12 h, ± SE, N = 3).
